From patent publication US7579016B2, “Methods for repelling arthropods using isolongifolenone analogs” (The United States of America as represented by the …, priority 2007, dated 2009)

How the values were obtained:
Ixodes scapularis nymphs = test: fingertip tick repellency bioassay (treated cloth strip around finger); assay type: in vivo; details: for I. scapularis nymphs repelled: FIG. 4
From the text: (§1) Tick Bioassay: Blacklegged tick (Ixodes scapularis) nymphs were reared from larvae obtained from the laboratory colony at Oklahoma State University, Stillwater, Okla., and fed on rats (Beltsville Area Animal Care and Use Committee Protocol #05-0122) at the U.S. Department of Agriculture (USDA), Agricultural Research Service (ARS), Beltsville Agricultural Research Center, Beltsville, Md. Lone star tick (Amblyomma americanum) nymphs were obtained from a colony at the USDA, ARS, Knipling-Bushland U.S. Livestock Insects Research Laboratory, Kerrville, Tex. Both species of ticks were maintained at 24° C.; ˜97% RH and 16:8 h LD until testing.
(§2) The fingertip bioassay used by Schreck et al. (Schreck, C. E., et al., J. Am. Mosq. Control Assoc., 11: 136-140 (1995)) was modified (Carroll, J. F., et al., Exp. Appl. Acarol., 41: 215-224 (2007); Carroll, J. F., et al., Med. Vet. Entomol., 19:101-106 (2005)) by applying treatments to the outer layer of a strip of cloth (organdy) later doubly wrapped around the middle phalanx of an index finger. A 7×7 […] strip of organdy cloth (G Street Fabrics, Rockville, Md.) was cut in the shape of a hockey stick (9 cm long section, 4.5 cm short section, 4-4.5 cm wide) so that when the cloth was wrapped twice around the middle phalanx of the index finger it completely covered the area between the deepest creases of the distal and middle joints of the finger of a volunteer subject. The cloth extended 5-6 mm proximally beyond the deepest crease of the middles joint and overlapped 1-3 mm. With the strip of cloth in place, the boundaries of the area to receive the repellent treatment area (between the deepest creases of the distal and middle joints) were marked on the cloth with a lead pencil. This cloth was used as a template for tracing the boundaries on other cloths.
(§3) Stoichiometrically equivalent stock 95% ethanol solutions of the compounds were prepared: 50 nmol Deet/μL and 50 nmol isolongifolenone or isolongifolenone analog/μL for use in all bioassays. The volumes of the respective solutions used to generate 155 nmole repellent doses/cm^2 cloth were based on the dimensions of the middle phalanx of the left index finger of a volunteer subject. The volume of the treated solutions required to give the desired nmoles/cm^2 cloth dosages was calculated from the average of the circumferences of the two finger joints multiplied by the distance between the deepest crease of each joint.
(§4) A repellent solution (52 μL) or ethanol (control) of the same volume was applied to the designated treatment area on the cloth and allowed to dry. As with Schreck et al. (1995), it was necessary to screen I. scapularis nymphs for active individuals. While the treated cloth dried, I. scapularis nymphs were transferred by forceps from a holding vial to a finger. Ten ticks that crawled ≧5 mm were sequestered in a Petri dish that had been glued inside a larger Petri dish with water added to the space between their sides to form a moat. After the cloth dried (10-12 min), it was wrapped twice around the index finger. To keep the cloth wrapped around the finger, three small dabs of beeswax were smeared on the upper surface of the inner layer of cloth at the edge of the overlap and pressure applied for 10 s. Using forceps, the 10 selected ticks were placed on the tip of the horizontally held finger between the nail and the edge of the cloth. When the tenth tick was placed on the finger, the finger was slowly tipped vertically with the tip downward. The locations of the ticks were recorded at 1, 3, 5, 10 and 15 min after their release on the finger. […] For both species, the finger was held over moated Petri dishes while ≧1 tick was on it. During bioassays temperatures ranged from 23°-26° C. and 10-56% RH. The repellent data were compared by paired samples t-test (SPSS 10.0 for Windows for significance at α=0.05 level, George, D., and P. Mallery, SPSS for Windows step by step: A simple guide and reference, 4th ed., 2002, Allyn & Bacon, Boston, Mass.). […]

Anopheles stephensi = test: in vitro K&D module mosquito biting-deterrent bioassay; assay type: in vivo; details: 25 nmol/cm^2 cloth; 3-minute exposure; 200 females; FIG. 2
From the text: (§5) Mosquito Bioassay: Yellowfever mosquito, Aedes aegypti (red eye Liverpool strain) and malarial vector mosquito, Anopheles stephensi used in the study were from colonies maintained at the Walter Reed Army Institute of Research, Department of Entomology, Silver Spring, Md. The mosquitoes were reared using the procedure of Gerberg et al. (Gerberg, E. J., et al., Manual for mosquito rearing and experimental techniques, 1994, AMCA Inc., Lake Charles, La.). Larvae were fed ground tropical fish flakes (Tetramin Tropical Fish Flakes, Tetra Sales, Blacksburg, Va., wwv.tetra-fish.com). Colonies were maintained in a photoperiod of 12:12 h (L:D with lights on at 0600 h) at 27° C. and 80% RH. Adult mosquitoes were supplied with cotton pads moistened with 10% aqueous sucrose solution.
(§6) The comparative mosquito biting-deterrent activity of isolongifolenone and Deet was evaluated using the mosquitoes A. degypti and An. stephensi. Isolongifolenone was synthesized as described earlier. The well known and widely used synthetic repellent chemical Deet (McCabe, E. T., et al., J. Org. Chem., 19: 493-498 (1954)) was purchased from Morflex, Inc., Greensboro, N.C. Deet is often considered to be the best mosquito repellent ever developed (Elston, D. M., J. Am. Acad. Dermatol., 36: 644-645 (1998)) and is used as a gold standard to which new candidate repellents are compared. A comparative bioassay of the two compounds was conducted by using the in vitro K&D module bioassay system (Klun et al., 2005). The K&D in vitro assay system consists of three components: (1) A Plexiglas™ 29.7 cm×7.1 cm K&D module composed of six adjacent cells each designed to hold mosquitoes and each having a rectangular 3×4 cm floor hole that opened and closed by a sliding door. (2) A Plexiglas™ six-well 29.7 cm×7.1 cm water water-bath warmed (38° C.) reservoir with six 3×4 cm wells designed to match the sliding-door openings of the K&D module base and to contain 6 mL warmed human red blood cells. The wells were covered with a collagen membrane (the blood cell-membrane unit simulated a human host for mosquito feeding). (3) A 29.7×7.1 cm×0.4 cm Teflon® separator having six rectangular openings like the K&D module. In the study, test compounds in 95% ethanol solution were applied to 3×4 cm cloth areas marked with ink pen on a 29.7-cm×7.1 cm strip of organdy cloth. We routinely applied ethanol solutions (115 μL) 0.5 cm outside of the 3×4 marked cloth areas to ensure that mosquitoes were never exposed to any area of untreated cloth. […] The Teflon® separator was placed over the treated cloth. The function of the separator was to prevent direct contact of the K&D module with chemically treated cloth. A bioassay replicate consisted of three treatments: isolongifolenone, Deet, and 95% ethanol treated cloth as control. We used two replicates with treatments randomly positioned over the six-cells of a reservoir.
(§7) The mosquito bioassays were conducted With the in vitro K&D module systems positioned in a Purair ductless chemical fume hood (Air Science USA, LLC, Fort Myers, Fla.) from 1300-1600 h over days at 24°-26° C. and 24-51%, RH in ambient laboratory light. Mated nulliparous A. aegypti and A. stephensi (5-15 d old) were tested, and they had no water 24 h before testing. Mosquitoes were loaded into each of six adjacent K&D module cells and promptly after loading they were exposed to 2 replicates of the three treatments on the organdy cloth. Routinely, a six-celled K&D module containing five mosquitoes/cell was positioned on the Teflon® separator over air-dried cloth treatments covering the blood-membrane wells, and trap doors of the K&D modules were opened to expose-the treatments to the sets of mosquitoes. After a 3-minute exposure, the number of mosquitoes biting through cloth treatments in each cell was recorded and mosquitoes were prodded back into the cells. […]

Aedes aegypti = test: as above; assay type: in vivo; details: for proportion of mosquitoes not biting (biting deterrence): 3-minute exposure, 200 females, FIG. 2; for proportion of mosquitoes deterred, dose-response assay: FIG. 3
From the text: as §5, §6, §7

mosquito = details: 25 nmol compound/cm^2, applied to human skin or cloth; cited from earlier work
[1] = system: Amblyomma americanum nymphs; test: fingertip tick repellency bioassay (treated cloth strip around finger); assay type: in vivo; details: A. americanum nymphs; 155 nmol/cm^2 cloth; 10 min after release on finger
From the text: as §1, §2, §3, §4

## CCN(CC)C(=O)c1cccc(C)c1 [Deet, N,N-Diethyltoluamide, reference compound]
Ixodes scapularis nymphs; 19.5 nmole/cm^2 cloth
  I. scapularis nymphs repelled: 15%
Ixodes scapularis nymphs; 39 nmole/cm^2 cloth
  I. scapularis nymphs repelled: 55%
Ixodes scapularis nymphs; 78 nmole/cm^2 cloth
  I. scapularis nymphs repelled: 100%
Anopheles stephensi
  proportion of mosquitoes not biting (biting deterrence): significantly greater
Aedes aegypti; 25 nmol/cm^2 cloth
  proportion of mosquitoes not biting (biting deterrence): significantly greater
Aedes aegypti; 25 nmol/cm^2 cloth, 100 mosquitoes per compound, FIG. 6
  proportion of mosquitoes not biting (analog comparison): significantly greater
mosquito
  suppression of mosquito biting compared to controls: ca. 80%

## CC1(C)C2=CC(=O)CC(C)(C)[C@]23CC[C@H]1C3 [Isolongifolenone, (−)-isolongifolenone]
[1]
  Proportion Repelled: 0.725
Ixodes scapularis nymphs; 19.5 nmole/cm^2 cloth
  I. scapularis nymphs repelled: 35%
Ixodes scapularis nymphs; 39 nmole/cm^2 cloth
  I. scapularis nymphs repelled: 65%
Ixodes scapularis nymphs; 78 nmole/cm^2 cloth
  I. scapularis nymphs repelled: 100%
Ixodes scapularis nymphs; I. scapularis nymphs, 155 nmol/cm^2 cloth, 10 min after release on finger
  Proportion Repelled: 1.0
Anopheles stephensi
  proportion of mosquitoes not biting (biting deterrence): more effectively than Deet
Aedes aegypti; 25 nmol/cm^2 cloth
  proportion of mosquitoes not biting (biting deterrence): more effectively than Deet
Aedes aegypti; 25 nmole compound/cm^2 cloth
  proportion of mosquitoes deterred, dose-response assay: significantly greater than the proportions deterred by Deet
Aedes aegypti; 36 nmole compound/cm^2 cloth
  proportion of mosquitoes deterred, dose-response assay: significantly greater than the proportions deterred by Deet
